In the NIST ThermoML archive (doi:10.1021/je700672f):
Numbers after ± are expanded uncertainties.

Legend:
[1] = 101 kPa, Liquid
[2] = xn = mol fraction of the nth substance listed; details: 101 kPa, Liquid, x2 = 0

OCCOCCO [diethylene glycol]
mass density ([1]; 283.15 K): 1124.24 ± 0.73 kg/m3 | mass density ([1]; 288.15 K): 1120.65 ± 0.72 kg/m3 | mass density ([1]; 293.15 K): 1117.05 ± 0.71 kg/m3 | viscosity ([1]; 293.15 K): 36.43 ± 0.35 mPa·s | mass density ([1]; 298.15 K): 1113.47 ± 0.7 kg/m3 | mass density ([1]; 303.15 K): 1109.88 ± 0.69 kg/m3 | viscosity ([1]; 303.15 K): 22.09 ± 0.22 mPa·s | mass density ([1]; 308.15 K): 1106.29 ± 0.68 kg/m3 | mass density ([1]; 313.15 K): 1102.7 ± 0.67 kg/m3 | viscosity ([1]; 313.15 K): 14.56 ± 0.15 mPa·s | mass density ([1]; 318.15 K): 1099.11 ± 0.66 kg/m3 | mass density ([1]; 323.15 K): 1095.51 ± 0.65 kg/m3 | viscosity ([1]; 323.15 K): 10.03 ± 0.11 mPa·s | mass density ([1]; 328.15 K): 1091.91 ± 0.64 kg/m3 | mass density ([1]; 333.15 K): 1088.3 ± 0.63 kg/m3 | viscosity ([1]; 333.15 K): 7.22 ± 0.08 mPa·s | mass density ([1]; 338.15 K): 1084.68 ± 0.62 kg/m3 | mass density ([1]; 343.15 K): 1081.05 ± 0.61 kg/m3 | viscosity ([1]; 343.15 K): 5.369 ± 0.063 mPa·s | mass density ([1]; 348.15 K): 1077.4 ± 0.6 kg/m3 | mass density ([1]; 353.15 K): 1073.74 ± 0.59 kg/m3 | viscosity ([1]; 353.15 K): 4.139 ± 0.05 mPa·s

O [water] + OCCOCCO
mass density ([2]; 283.15 K): 999.7 ± 0.19 kg/m3 | viscosity ([2]; 293.15 K): 1.013 ± 0.014 mPa·s | mass density ([2]; 303.15 K): 995.55 ± 0.2 kg/m3 | viscosity ([2]; 303.15 K): 0.811 ± 0.012 mPa·s | viscosity ([2]; 313.15 K): 0.667 ± 0.011 mPa·s | mass density ([2]; 323.15 K): 988.03 ± 0.21 kg/m3 | viscosity ([2]; 323.15 K): 0.561 ± 0.011 mPa·s | mass density ([2]; 328.15 K): 985.69 ± 0.22 kg/m3 | mass density ([2]; 333.15 K): 983.19 ± 0.23 kg/m3 | viscosity ([2]; 333.15 K): 0.477 ± 0.01 mPa·s | mass density ([2]; 338.15 K): 980.55 ± 0.23 kg/m3 | mass density ([2]; 343.15 K): 977.76 ± 0.24 kg/m3 | viscosity ([2]; 343.15 K): 0.413 ± 0.01 mPa·s | mass density ([2]; 348.15 K): 974.84 ± 0.25 kg/m3 | mass density ([2]; 353.15 K): 971.79 ± 0.25 kg/m3 | viscosity ([2]; 353.15 K): 0.362 ± 0.009 mPa·s
